Assay results reported in patent US20140323477A1, “SERINE/THREONINE KINASE INHIBITORS” (Genentech, Inc., priority 2013, published 2014).

Target: T1, human recombinant PAK1-KD protein (Homo sapiens, UniProt Q13153)
T1 construct: made in house; host or cells: Tini cells (insect cells) infected with recombinant baculovirus
Assay: PAK1-KD (kinase domain) IC50 Zlyte assay
Assay type: biochemical
Conditions: Z′-LYTE FRET peptide substrate (Ser/Thr19), 20 pM PAK1-KD, 60-minute incubation at 22° C.
Text: PAK1-KD (Kinase Domain) IC50 Zlyte Assay Protocol
Activity of human recombinant PAK1-KD protein may be assessed in vitro by assay of the phosphorylation of a FRET peptide substrate. Catalytically active human recombinant PAK1-KD protein is obtained by purification from Tini cells infected with a human PAK1-KD recombinant baculovirus expression vector.
The activity/inhibition of PAK1-KD was estimated by measuring the phosphorylation of a FRET peptide substrate (Ser/Thr19) labeled with coumarin and fluorescein using Z′-LYTE™ assay (Invitrogen). The peptide substrate is a consensus sequence (KKRNRRLSVA) based on various PAK substrates reported in the scientific literature. The 10 μL assay mixtures contained 50 mM HEPES (pH 7.5), 0.01% Brij-35, 10 mM MgCl2, 1 mM EGTA, 2 μM FRET peptide substrate, and 20 pM PAK1-KD. Incubations were carried out at 22° C. in black polypropylene 384-well plates (Corning Costar). […] Following the 60-minute incubation, the assay mixtures were quenched by the addition of 5 μL of Z′-LYTETm development reagent, and 1 hour later the emissions of Coumarin (445 nm) and Fluorescein (520 nm) were determined after excitation at 400 nm using an Envision plate reader (Perkin Elmer). An emission ratio (445 nm/520 nm) was determined to quantify the degree of substrate phosphorylation.

T1 sequence (Q13153 270-521 limits assumed): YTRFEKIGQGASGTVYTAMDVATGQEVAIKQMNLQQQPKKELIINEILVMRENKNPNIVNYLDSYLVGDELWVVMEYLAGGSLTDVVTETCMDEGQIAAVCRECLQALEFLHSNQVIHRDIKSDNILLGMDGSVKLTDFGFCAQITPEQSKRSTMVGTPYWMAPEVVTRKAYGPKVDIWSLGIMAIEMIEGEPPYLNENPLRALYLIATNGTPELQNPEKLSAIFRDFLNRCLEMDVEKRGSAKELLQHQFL

IC50 [nM]	Compound
133	CCNS(=O)(=O)c1ccc(-c2cc3cnc(NCCC4CCN(C)CC4)nc3n(CC)c2=O)c(C)c1 [Compound I-2, N-ethyl-4-[8-ethyl-2-[2-(1-methyl-4-piperidyl)ethylamino]-7-oxo-pyrido[2,3-d]pyrimidin-6-yl]-3-methyl-benzenesulfonamide]
22.3	CCNS(=O)(=O)c1ccc(-c2cc3cnc(NCCC4CCN(C)CC4)nc3n(CC)c2=O)c(Cl)c1 [Compound I-8, 3-chloro-N-ethyl-4-[8-ethyl-2-[2-(1-methyl-4-piperidyl)ethylamino]-7-oxo-pyrido[2,3-d]pyrimidin-6-yl]benzenesulfonamide]
131	CCNc1ncc2cc(-c3ccc(S(=O)(=O)NCC)cc3Cl)c(=O)n(CC)c2n1 [Compound I-9, 3-chloro-N-ethyl-4-[8-ethyl-2-(ethylamino)-7-oxo-pyrido[2,3-d]pyrimidin-6-yl]benzenesulfonamide]
1600	CCNc1ncc2cc(-c3ccc(S(=O)(=O)NC)cc3Cl)c(=O)n(C)c2n1 [Compound I-11, 3-chloro-4-[2-(ethylamino)-8-methyl-7-oxo-pyrido[2,3-d]pyrimidin-6-yl]-N-methyl-benzenesulfonamide]
177	CCNc1ncc2cc(-c3ccc(S(=O)(=O)NC(C)C)cc3Cl)c(=O)n(C)c2n1 [Compound I-12, 3-chloro-4-[2-(ethylamino)-8-methyl-7-oxo-pyrido[2,3-d]pyrimidin-6-yl]-N-isopropyl-benzenesulfonamide]

The remaining lines, values behind:

Compound	IC50 [nM]
CCn1c(=O)c(-c2cccc(S(=O)(=O)N(C)C)c2)cc2cnc(NCCC3CCN(C)CC3)nc21 [Compound I-1, 3-[8-ethyl-2-[2-(1-methyl-4-piperidyl)ethylamino]-7-oxo-pyrido[2,3-d]pyrimidin-6-yl]-N,N-dimethyl-benzenesulfonamide]	182
CCn1c(=O)c(-c2ccc(S(=O)(=O)N(C)C)cc2C)cc2cnc(NCCC3CCN(C)CC3)nc21 [Compound I-3, 4-[8-ethyl-2-[2-(1-methyl-4-piperidyl)ethylamino]-7-oxo-pyrido[2,3-d]pyrimidin-6-yl]-N,N,3-trimethyl-benzenesulfonamide]	1320
CCn1c(=O)c(-c2ccc(S(=O)(=O)N3CCOCC3)cc2C)cc2cnc(NCCC3CCN(C)CC3)nc21 [Compound I-4, 8-ethyl-6-(2-methyl-4-morpholinosulfonyl-phenyl)-2-[2-(1-methyl-4-piperidyl)ethylamino]pyrido[2,3-d]pyrimidin-7-one]	751
CCn1c(=O)c(-c2ccc(S(=O)(=O)N3CCCC3)cc2C)cc2cnc(NCCC3CCN(C)CC3)nc21 [Compound I-5, 8-ethyl-2-[2-(1-methyl-4-piperidyl)ethylamino]-6-(2-methyl-4-pyrrolidin-1-ylsulfonyl-phenyl)pyrido[2,3-d]pyrimidin-7-one]	460
CCn1c(=O)c(-c2ccc(S(=O)(=O)NC3CC3)cc2C)cc2cnc(NCCC3CCN(C)CC3)nc21 [Compound I-6, N-cyclopropyl-4-[8-ethyl-2-[2-(1-methyl-4-piperidyl)ethylamino]-7-oxo-pyrido[2,3-d]pyrimidin-6-yl]-3-methyl-benzenesulfonamide]	77.1
CCn1c(=O)c(-c2ccc(S(=O)(=O)NC)cc2C)cc2cnc(NCCC3CCN(C)CC3)nc21 [Compound I-7, 4-[8-ethyl-2-[2-(1-methyl-4-piperidyl)ethylamino]-7-oxo-pyrido[2,3-d]pyrimidin-6-yl]-N,3-dimethyl-benzenesulfonamide]	582
CNS(=O)(=O)c1ccc(-c2cc3cnc(NCCC4CCN(C)CC4)nc3n(C)c2=O)c(Cl)c1 [Compound I-10, 3-chloro-N-methyl-4-[8-methyl-2-[2-(1-methyl-4-piperidyl)ethylamino]-7-oxo-pyrido[2,3-d]pyrimidin-6-yl]benzenesulfonamide]	820
CC(C)NS(=O)(=O)c1ccc(-c2cc3cnc(NCCC4CCN(C)CC4)nc3n(C)c2=O)c(Cl)c1 [Compound I-13, 3-chloro-N-isopropyl-4-[8-methyl-2-[2-(1-methyl-4-piperidyl)ethylamino]-7-oxo-pyrido[2,3-d]pyrimidin-6-yl]benzenesulfonamide]	80.4
CCn1c(=O)c(-c2cc(S(=O)(=O)N(C)C)ccc2Cl)cc2cnc(NCCC3CCN(C)CC3)nc21 [Compound I-14, 4-chloro-3-[8-ethyl-2-[2-(1-methyl-4-piperidyl)ethylamino]-7-oxo-pyrido[2,3-d]pyrimidin-6-yl]-N,N-dimethyl-benzenesulfonamide]	310
